The source of these data is ChEMBL document CHEMBL1201862, “PubChem BioAssay data set” (2004).

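Protocol summary: plate cells (96-well), add compound at 5 concentrations, incubate 48 h, interpolate endpoints linearly. GI50 is the concentration that inhibits growth by half.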 Activity calls are given as the source filed them. Cut-off read from the data, not from the text of the source: active = GI50 up to about 1.1 µM and inactive = higher.

Among the test systems are DMS-114; XF498; DMS-273; DLD-1; SNB-78; RXF 631; M19-MEL; BT-549; MDA-N.
What all share (experiment): growth of human tumour cells (NCI), 48 h

Regarding `Cc1ccc(NC(=O)CCC(=O)C(C#N)c2ccccc2)cc1C` (centres undefined), the GI50 in the experiment with DMS-114, in the experiment on XF498, in the experiment with DMS-273, in the experiment on DLD-1, in the experiment with SNB-78 and in the experiment on RXF 631 was > 100 µM (inactive) throughout.

In the case of `Cc1cc2c(cc1C)[n+]([O-])c(C(=O)/C=C/c1ccccc1Cl)c(C)[n+]2[O-]`, the GI50 with DMS-114 is 21.8 µM (inactive); with XF498 it was 18.5 µM (inactive); with DMS-273, 29.4 µM (inactive); with M19-MEL, 36 µM (inactive); with DLD-1, 19.5 µM (inactive); in the experiment on SNB-78, 33.7 µM (inactive). Further, in the experiment with RXF 631, the GI50 was 24.7 µM (inactive).

In the case of `OC(c1ccccc1)C1CC2C=CC1C2` (centres undefined), the GI50 in the experiment on DMS-114, in the experiment on XF498, in the experiment with DMS-273, with M19-MEL, with DLD-1 and in the experiment with SNB-78 was > 100 µM (inactive) throughout. Moreover, in the experiment on RXF 631, the GI50 is > 100 µM (inactive).

For the compound `O=C1CC2CCCCC2=C1O` (centres undefined), the GI50 with DMS-114, in the experiment with XF498, with DMS-273, in the experiment on M19-MEL, in the experiment with DLD-1 and in the experiment on SNB-78 was > 100 µM (inactive) throughout. Moreover, in the experiment with RXF 631, the GI50 was > 100 µM (inactive).

For `Cc1c2cc[n+](C)cc2c(C)c2c1sc1ccccc12`, the GI50 in the experiment with DMS-114 is 0.395 µM (active); with XF498, 0.564 µM (active); with DMS-273 it was 0.853 µM (active); in the experiment on M19-MEL, 1.1 µM (active); in the experiment on DLD-1, 3.05 µM (inactive); in the experiment on BT-549 it was 0.294 µM (active). Besides, the GI50 with SNB-78 is 0.855 µM (active); in the experiment on RXF 631 it was 0.194 µM (active); in the experiment on MDA-N, 2.77 µM (inactive).

On to `CN1C(=O)CCC1(O)C1C=CC=CC1` (centres undefined), for which the GI50 in the experiment with DMS-114, in the experiment on XF498, with DMS-273, in the experiment on M19-MEL, in the experiment on DLD-1 and with SNB-78 was > 100 µM (inactive) throughout. Further, in the experiment on RXF 631, the GI50 is > 100 µM (inactive).

For `CN(C)C(=S)/N=c1\ssc(=S)n1Cc1ccco1`, the GI50 with DMS-114 is 1.99 µM (inactive); in the experiment with XF498, 4.39 µM (inactive); with DMS-273, 0.587 µM (active); in the experiment with M19-MEL it was 2.16 µM (inactive); in the experiment with DLD-1 it was 2.86 µM (inactive); in the experiment on BT-549, 12.2 µM (inactive). For the same compound, the GI50 is 3.18 µM (inactive) in the experiment on SNB-78, 4.69 µM (inactive) in the experiment on RXF 631 and 0.22 µM (active) with MDA-N.

Take `COC(=O)CCC1(NS(=O)(=O)c2ccc(C)cc2)CCC(C(C)(C)C)CC1` (centres undefined): the GI50 in the experiment with DMS-114 was 4.58 µM (inactive); in the experiment on XF498 it was 14.8 µM (inactive); with DMS-273, 12.9 µM (inactive); with M19-MEL, 11.4 µM (inactive); in the experiment with DLD-1, 17 µM (inactive); with SNB-78, 21.3 µM (inactive). For the same compound, the GI50 in the experiment with RXF 631 is 15.9 µM (inactive).
